The values below come from ChEMBL document CHEMBL5375986, “Discovery of Lead 2-Thiazolylhydrazones with Broad-Spectrum and Potent Antifungal Activity” (J Med Chem, 2023).

One may read the MIC as the lowest concentration that inhibits growth of the organism.

Test [1] deals with Cryptococcus neoformans. Kind of test: Antifungal activity against Cryptococcus neoformans assessed as inhibition of fungal growth. The test is classed as functional.
A short description of test [2]: Antifungal activity against Cryptococcus gattii VGI assessed as inhibition of fungal growth. The test is classed as functional.
Another test concerns Candida albicans. Description: Antifungal activity against Candida albicans SC5314 assessed as inhibition of fungal growth incubated for 24 to 48 hrs by CLSI protocol based broth microdilution method. Particulars: time 24-48 hrs. The format is functional. In general terms: In broth dilution the organism is exposed to a series of concentrations in liquid medium.
Another test deals with Candida parapsilosis. Description: Antifungal activity against Candida parapsilosis ATCC 22019 assessed as inhibition of fungal growth incubated for 24 to 48 hrs by CLSI protocol based broth microdilution method. The format is functional. Particulars: Lodderomyces parapsilosis, time 24-48 hrs.
A further test relates to Candida tropicalis. Kind of test: Antifungal activity against Candida tropicalis ATCC 750 assessed as inhibition of fungal growth incubated for 24 to 48 hrs by CLSI protocol based broth microdilution method. Particulars: time 24-48 hrs. The format is functional.
The next test has as its system Pichia kudriavzevii. Kind of test: Antifungal activity against Candida krusei ATCC 20298 assessed as inhibition of fungal growth incubated for 24 to 48 hrs by CLSI protocol based broth microdilution method. The test is classed as functional. Particulars: time 24-48 hrs.
In a further test the test system is [Candida] auris. Kind of test: Antifungal activity against Candida auris COLO 01 assessed as inhibition of fungal growth incubated for 24 to 48 hrs by CLSI protocol based broth microdilution method. Particulars: Candidozyma auris, time 24-48 hrs. The test is classed as functional.
A further test has as its system Nakaseomyces glabratus. Kind of test: Antifungal activity against Candida glabrata ATCC 2001 assessed as inhibition of fungal growth incubated for 24 to 48 hrs by CLSI protocol based broth microdilution method. The format is functional. The following applies: time 24-48 hrs.
Test [3] in a line: Antifungal activity against Cryptococcus gattii ATCC 24065 assessed as inhibition of fungal growth incubated for 24 to 48 hrs by CLSI protocol based broth microdilution method. The format is functional, Cryptococcus gattii VGI. Particulars: time 24-48 hrs.
Test [4] deals with Cryptococcus neoformans. Description: Antifungal activity against Cryptococcus neoformans ATCC 24067 assessed as inhibition of fungal growth incubated for 24 to 48 hrs by CLSI based broth microdilution method. The format is functional. The following applies: time 24-48 hrs.

Structures are written as SMILES. ≈ marks a conversion by molar mass, not a printed value. A value given as a limit tells only on which side of the number the result lay.

In the case of `C(=N\Nc1nc(-c2ccccc2)cs1)/C1CCCCC1`, the minimum inhibitory concentration (MIC) (in the test on Cryptococcus neoformans [1]; in [2]) was 0.9 µM (≈ 0.257 µg/mL) throughout.

Regarding `COc1ccc(-c2csc(N/N=C/C3CCCCC3)n2)cc1`, the minimum inhibitory concentration (MIC) is 0.79 µM (≈ 0.249 µg/mL) in the test with Cryptococcus neoformans [1] and 1.58 µM (≈ 0.498 µg/mL) in test [2].

In the case of `c1ccc(-c2csc(NN=C3CCCC3)n2)cc1`, the minimum inhibitory concentration (MIC) (in the test with Cryptococcus neoformans [1]; in test [2]) was 1.94 µM (≈ 0.499 µg/mL) in each case.

For the molecule `CCOC(=O)c1sc(NN=C2CCOCC2)nc1C`, the MIC (in the test on Candida albicans; with Candida parapsilosis; in the test on Candida tropicalis; in the test on Pichia kudriavzevii; in [Candida] auris; in the test on Nakaseomyces glabratus) was above 125 µM each time. The MIC (in [3]; in the test with Cryptococcus neoformans [4]) was above 125 µM throughout.

For the molecule `CCOC(=O)Cc1csc(NN=C(C)C(=O)OCC)n1`, the MIC in the test on Candida albicans was found to be 104 µM (≈ 31.3 µg/mL); in the test with Candida parapsilosis, 104 µM (≈ 31.3 µg/mL); in the test with Candida tropicalis it was 104 µM (≈ 31.3 µg/mL); in the test on Pichia kudriavzevii it was 13 µM (≈ 3.89 µg/mL); in [Candida] auris, 104 µM (≈ 31.3 µg/mL); with Nakaseomyces glabratus, 52.2 µM (≈ 15.6 µg/mL). The MIC (in test [3]; in the test with Cryptococcus neoformans [4]) was above 125 µM in each case.

As to `CCOC(=O)c1sc(N/N=C\C2CCCCC2)nc1C`, the minimum inhibitory concentration (MIC) (in the test on Candida albicans; in the test on Candida parapsilosis; in the test with Candida tropicalis; in the test with Pichia kudriavzevii; in [Candida] auris; in the test on Nakaseomyces glabratus) was above 125 µM each time. In addition, the MIC (in [3]; in the test with Cryptococcus neoformans [4]) was above 125 µM each time.

In the case of `CCN1CCCC(/C=N/Nc2nc(-c3ccc(Br)cc3)cs2)C1` (stereo not given), the minimal inhibitory concentration (MIC) in the test with Candida albicans was 39.8 µM (≈ 15.7 µg/mL); in the test with Candida parapsilosis, 19.9 µM (≈ 7.83 µg/mL); in the test on Candida tropicalis, 79.7 µM (≈ 31.4 µg/mL); with Pichia kudriavzevii it was 2.5 µM (≈ 0.983 µg/mL); in [Candida] auris it was 19.9 µM (≈ 7.83 µg/mL); in the test with Nakaseomyces glabratus, above 125 µM. For the same molecule, the MIC (in test [3]; with Cryptococcus neoformans [4]) was 72.9 µM (≈ 28.7 µg/mL) throughout.

Take `CCOC(=O)Cc1csc(NN=C(C)CCO)n1`: the MIC in the test on Candida albicans came to 115 µM (≈ 31.3 µg/mL); with Candida parapsilosis, 115 µM (≈ 31.3 µg/mL); in the test with Candida tropicalis it was 57.6 µM (≈ 15.6 µg/mL); in the test on Pichia kudriavzevii it was 3.6 µM (≈ 0.977 µg/mL); in test [Candida] auris, 115 µM (≈ 31.3 µg/mL); in the test with Nakaseomyces glabratus, 7.2 µM (≈ 1.95 µg/mL). Also, the minimal inhibitory concentration (MIC) (in [3]; in the test with Cryptococcus neoformans [4]) was above 125 µM in each case.

On to `COc1ccc(-c2csc(NN=C(C)CCO)n2)cc1`, for which the values for the minimal inhibitory concentration (MIC) (in the test with Cryptococcus neoformans [1]; in test [2]) were 0.45 µM (≈ 0.131 µg/mL) and 0.9 µM (≈ 0.262 µg/mL), respectively.

Consider `CCOC(=O)/C(C)=N\Nc1nc(C)c(C(=O)OCC)s1`, for which the MIC in the test with Candida albicans was above 125 µM; with Candida parapsilosis it was above 125 µM; in the test with Candida tropicalis it was 104 µM (≈ 31.3 µg/mL); in the test with Pichia kudriavzevii, above 125 µM; in test [Candida] auris, above 125 µM; with Nakaseomyces glabratus, above 125 µM. Also, the minimal inhibitory concentration (MIC) (in test [3]; with Cryptococcus neoformans [4]) was above 125 µM each time.

In the case of `CCOC(=O)Cc1csc(N/N=C\C2CCCCC2)n1`, the minimal inhibitory concentration (MIC) is 52.9 µM (≈ 15.6 µg/mL) with Candida albicans; 52.9 µM (≈ 15.6 µg/mL) in the test with Candida parapsilosis; 6.6 µM (≈ 1.95 µg/mL) with Candida tropicalis; 0.8 µM (≈ 0.236 µg/mL) in the test with Pichia kudriavzevii; 52.9 µM (≈ 15.6 µg/mL) in [Candida] auris; above 125 µM with Nakaseomyces glabratus. The minimal inhibitory concentration (MIC) (in [3]; in the test with Cryptococcus neoformans [4]) was 106 µM (≈ 31.3 µg/mL) throughout.

Take `C[C@@H]1[C@H](O)[C@@H](C)/C=C/C=C/C=C/C=C/C=C/C=C/C=C/[C@H](O[C@@H]2O[C@H](C)[C@@H](O)[C@H](N)[C@@H]2O)C[C@@H]2O[C@](O)(C[C@@H](O)C[C@@H](O)[C@H](O)CC[C@@H](O)C[C@@H](O)CC(=O)O[C@H]1C)C[C@H](O)[C@H]2C(=O)O` [AMPHOTERICIN B]: the MIC came out at 2.2 µM (≈ 2.03 µg/mL) in the test on Candida albicans; 2.2 µM (≈ 2.03 µg/mL) in the test with Candida parapsilosis; 0.5 µM (≈ 0.462 µg/mL) in the test with Candida tropicalis; 4.3 µM (≈ 3.97 µg/mL) in the test on Pichia kudriavzevii; 4.3 µM (≈ 3.97 µg/mL) in [Candida] auris; 1.1 µM (≈ 1.02 µg/mL) in the test on Nakaseomyces glabratus. The minimal inhibitory concentration (MIC) came to 1.1 µM (≈ 1.02 µg/mL) in [3] and 0.5 µM (≈ 0.462 µg/mL) with Cryptococcus neoformans [4].

On to `CCC(C)n1ncn(-c2ccc(N3CCN(c4ccc(OCC5COC(Cn6cncn6)(c6ccc(Cl)cc6Cl)O5)cc4)CC3)cc2)c1=O` (stereo not given) [ITRACONAZOLE], for which the MIC with Candida albicans came to 0.7 µM (≈ 0.494 µg/mL); in the test on Candida parapsilosis, 0.4 µM (≈ 0.282 µg/mL); in the test with Candida tropicalis it was 0.2 µM (≈ 0.141 µg/mL); with Pichia kudriavzevii, 2.8 µM (≈ 1.98 µg/mL); in test [Candida] auris, 0.4 µM (≈ 0.282 µg/mL); with Nakaseomyces glabratus, 0.4 µM (≈ 0.282 µg/mL). For the same molecule, the minimal inhibitory concentration (MIC) in test [3] stood at 2.8 µM (≈ 1.98 µg/mL); in the test with Cryptococcus neoformans [4], 1.4 µM (≈ 0.988 µg/mL).
